In patent US9670172B2, “Heterocyclic compounds and methods of use” (Medivation Technologies, Inc., priority 2014, dated 2017):
Like-named read-outs stand apart in the source and are kept apart here.

Assays:
[1] = PK parameters for representative compounds (i.v. and p.o.); details: in vivo; for half-life: read-out: Terminal t1/2 (converted)
Source text: Standard PK parameters were collected in Mouse and Dog for Compound #37 in mouse (FIG. 4A) and dog (FIG. 4B).

SREBP2 = SREBP2 cleavage in HEPG2 cells (Western blot normalized to actin); assay type: cell-based; details: Homo sapiens, read-out: Average SREBP2 cleavage (% Inhibition, n = 3)
Experimental: Average SREBP2 cleavage in HEPG2 cells was measured in the presence of compounds disclosed in Table 1. HepG2 cells were seeded at 500,000 cells per well in 6-well plates in DMEM supplemented with 10% FBS. After 2 days, cells were treated with compounds (20 μM) for 1 day in DMEM without FBS. Western blots were normalized with respect to actin.
The results are shown in Table 3 as percent inhibition@20 μM, and in Table 4 as percent inhibition@5 μM.

[2] = HepG2 cell viability by MTS; assay type: cell-based; details: human, HepG2 cells, 3 days, DMEM without FBS, MTS, read-out: Average Viability (% Inhibition, n = 3)
Experimental: For viability measurements, HepG2 cells were seeded at 5,000 cells per well in 96-well plates in DMEM supplemented with 10% FBS. After 1 day in culture, cells were treated with compounds (20 μM & 5 μM) for 3 days in DMEM without FBS. Viability was measured by MTS. Treatment with compounds (20 μM & 5 μM) was carried out in medium without FBS, and viability was measured by MTS. […]

[3] = 24 h, 20 μM, HepG2 cells, 1 day, DMEM without FBS

Structure (SMILES) | inhibition at 5 µM (SREBP2; HepG2 cells) [%] | cytotoxicity at 3 days, 5 μM [2] [%] | cytotoxicity at 3 days, 20 μM [2] [%] | also measured
O=S(=O)(Nc1ccc(-c2csc(-c3ccc4c(c3)CCO4)n2)c(Cl)c1)C(F)(F)F [Compound 82, N-{3-chloro-4-[2-(2,3-dihydro-1-benzofuran-5-yl)-1,3-thiazol-4-yl]phenyl}-1,1,1-trifluoromethanesulfonamide] | 77 | 82 |  | AUC(0-t) ([1]; iv, i.v. @ 2 mg/kg): 25.4 µM·h; Cmax ([1]; iv, i.v. @ 2 mg/kg): 12.6 µM; Vd ([1]; iv, i.v. @ 2 mg/kg): 0.719 L/kg; clearance ([1]; iv, i.v. @ 2 mg/kg): 2.28 mL/min/kg; half-life ([1]; iv, i.v. @ 2 mg/kg): 3.64 h; AUC(0-t) ([1]; po, p.o. @ 10 mg/kg): 175 µM·h; Cmax ([1]; po, p.o. @ 10 mg/kg): 25.8 µM; Tmax ([1]; po, p.o. @ 10 mg/kg): 4 h; bioavailability ([1]; po, p.o. @ 10 mg/kg): 138%; half-life ([1]; po, p.o. @ 10 mg/kg): > 8 h
O=S(=O)(Nc1ccc(-c2csc(-c3csc4ccccc34)n2)c(Cl)c1)C(F)(F)F [Compound 90, N-{4-[2-(1-benzothiophen-3-yl)-1,3-thiazol-4-yl]-3-chlorophenyl}-1,1,1-trifluoromethanesulfonamide] | 64 | 99 |  | 
CCCc1cc(-c2nc(-c3cccc(NS(=O)(=O)C(F)(F)F)c3)cs2)ccn1 [Compound 2, 1,1,1-trifluoro-N-(3-(2-(2-propylpyridin-4-yl)thiazol-4-yl)phenyl)methanesulfonamide] |  |  | 80.5 | inhibition at 20 µM (SREBP2; HepG2, 24 h): 73%
COc1cc(-c2csc(-c3ccnc(CC(C)C)c3)n2)ccc1NS(=O)(=O)C(F)(F)F [Compound 57, 1,1,1-trifluoro-N-(2-methoxy-4-{2-[2-(2-methylpropyl)pyridin-4-yl]-1,3-thiazol-4-yl}phenyl)methanesulfonamide] |  |  | 56.4 | inhibition at 20 µM (SREBP2; [3]): 46.9%
COc1cc(-c2csc(-c3ccnc(C(C)(C)C)c3)n2)ccc1NS(=O)(=O)C(F)(F)F [Compound 59, N-(4-(2-(2-tert-butylpyridin-4-yl)thiazol-4-yl)-2-methoxyphenyl)-1,1,1-trifluoromethanesulfonamide] |  |  | 99.8 | inhibition at 20 µM (SREBP2; [3]): 60.6%
CN1CCN(c2cc(-c3nc(-c4ccc(NS(=O)(=O)C(F)(F)F)cc4Cl)cs3)ccn2)CC1 [Compound 76, N-(3-chloro-4-{2-[2-(4-methylpiperazin-1-yl)pyridin-4-yl]-1,3-thiazol-4-yl}phenyl)-1,1,1-trifluoromethanesulfonamide] | 7 | 3 |  | 
O=S(=O)(Nc1ccc(-c2csc(-c3ccccc3CO)n2)c(Cl)c1)C(F)(F)F [Compound 84, N-(3-chloro-4-{2-[2-(hydroxymethyl)phenyl]-1,3-thiazol-4-yl}phenyl)-1,1,1-trifluoromethanesulfonamide] | 20 | 18 |  | 
O=S(=O)(Nc1ccc(-c2csc(-c3ccc(F)cc3CN3CCCC3)n2)c(Cl)c1)C(F)(F)F [Compound 91, N-(3-chloro-4-{2-[4-fluoro-2-(pyrrolidin-1-ylmethyl)phenyl]-1,3-thiazol-4-yl}phenyl)-1,1,1-trifluoromethanesulfonamide] | 16 | 4 |  | 
O=S(=O)(Nc1ccc(-c2csc(-c3ccnc4[nH]ccc34)n2)c(Cl)c1)C(F)(F)F [Compound 87, N-[3-chloro-4-(2-{1H-pyrrolo[2,3-b]pyridin-4-yl}-1,3-thiazol-4-yl)phenyl]-1,1,1-trifluoromethanesulfonamide] | 50 | 9 |  | 
O=S(=O)(Nc1ccc(-c2csc(-c3ccc(C(F)(F)F)c(OCc4ccccc4)c3)n2)c(Cl)c1)C(F)(F)F [Compound 73, N-(4-{2-[3-(benzyloxy)-4-(trifluoromethyl)phenyl]-1,3-thiazol-4-yl}-3-chlorophenyl)-1,1,1-trifluoromethanesulfonamide] | 64 | 99 |  | 
